Data from ChEMBL document CHEMBL1137205, “Rational approaches to discovery of orally active and brain-penetrable quinazolinone inhibitors of poly(ADP-ribose)polymerase” (J Med Chem, 2004).

Tests used:
[1] = molecular target: Poly [ADP-ribose] polymerase 1 (Homo sapiens, UniProt P09874); test: In vitro inhibitory concentration against human recombinant Poly (ADP-ribose) polymerase 1
[2] = Concentration in brain tissue was measured at 0.5 hrs in mice following po administration of 32 mg/kg; type: ADME, organism-based; set-up: dose 32 mg/kg, route oral; details: mouse
[3] = Concentration in brain tissue was measured at 2 hrs in mice following po administration of 32 mg/kg; type: ADME, organism-based; set-up: dose 32 mg/kg, route oral; details: mouse
[4] = Concentration in plasma was measured at 2 hrs in mice following po administration of 32 mg/kg; type: ADME, organism-based; set-up: dose 32 mg/kg, route oral; details: mouse
[5] = Concentration in plasma was measured at 0.5 hrs in mice following po administration of 32 mg/kg; type: ADME, organism-based; set-up: dose 32 mg/kg, route oral; details: mouse
[6] = Concentration in plasma was measured at 0.5 hrs in mice following ip administration of 32 mg/kg; type: ADME, organism-based; set-up: dose 32 mg/kg, route intraperitoneal; details: mouse
[7] = Ratio of brain tissue concentration to that of plasma concentration; type: ADME; details: mouse; for Kp: brain / plasma
[8] = Concentration in brain tissue was measured at 0.5 hrs in mice following ip administration of 32 mg/kg; type: ADME, organism-based; set-up: dose 32 mg/kg, route intraperitoneal; details: mouse
[9] = Clearance in dog liver microsomes when incubated at 37 degree Celsius in the presence of NADPH-generating system
[10] = Cmax value in mouse after po administration of 10 mg/kg; type: ADME, organism-based; set-up: dose 10 mg/kg, route oral; details: in vivo
[11] = Clearance in human liver microsomes when incubated at 37 degree Celsius in the presence of NADPH-generating system
[12] = Bioavailability in dog after iv administration of 1.0 mg/kg; type: ADME, organism-based, Canis lupus familiaris; details: in vivo, read-out: Bioavailabiility
[13] = Half-life in dog after iv administration of 1.0 mg/kg; type: ADME, organism-based, Canis lupus familiaris; set-up: dose 1 mg/kg, route intravenous; details: in vivo
[14] = Clearance in rat liver microsomes when incubated at 37 degree Celsius in the presence of NADPH-generating system
[15] = Bioavailability in rat after iv administration of 10 mg/kg; type: ADME, organism-based; details: in vivo, read-out: Bioavailabiility
[16] = Half-life in rat after iv administration of 10 mg/kg; type: ADME, organism-based; set-up: dose 10 mg/kg, route intravenous; details: in vivo
[17] = Clearance in mouse liver microsomes when incubated at 37 degree Celsius in the presence of NADPH-generating system
[18] = AUC value in rat after po administration of 10 mg/kg; type: ADME, organism-based, Plasma; set-up: dose 10 mg/kg, route oral; details: in vivo
[19] = Cmax value in dog after po administration of 1.0 mg/kg; type: ADME, organism-based, Canis lupus familiaris; set-up: dose 1 mg/kg, route oral; details: in vivo
[20] = Clearance of compound in dog after iv administration of 1.0 mg/kg; type: ADME, organism-based, Canis lupus familiaris; set-up: dose 1 mg/kg, route intravenous; details: in vivo
[21] = Clearance of compound in rat after iv administration of 10 mg/kg; type: ADME, organism-based; set-up: dose 10 mg/kg, route intravenous; details: in vivo
[22] = Cmax value in rat after po administration of 10 mg/kg; type: ADME, organism-based; set-up: dose 10 mg/kg, route oral; details: in vivo
[23] = AUC value in dog after po administration of 1.0 mg/kg; type: ADME, organism-based, Canis lupus familiaris, Plasma; set-up: dose 1 mg/kg, route oral; details: in vivo

Sequence of Poly [ADP-ribose] polymerase 1 (P09874 whole entry): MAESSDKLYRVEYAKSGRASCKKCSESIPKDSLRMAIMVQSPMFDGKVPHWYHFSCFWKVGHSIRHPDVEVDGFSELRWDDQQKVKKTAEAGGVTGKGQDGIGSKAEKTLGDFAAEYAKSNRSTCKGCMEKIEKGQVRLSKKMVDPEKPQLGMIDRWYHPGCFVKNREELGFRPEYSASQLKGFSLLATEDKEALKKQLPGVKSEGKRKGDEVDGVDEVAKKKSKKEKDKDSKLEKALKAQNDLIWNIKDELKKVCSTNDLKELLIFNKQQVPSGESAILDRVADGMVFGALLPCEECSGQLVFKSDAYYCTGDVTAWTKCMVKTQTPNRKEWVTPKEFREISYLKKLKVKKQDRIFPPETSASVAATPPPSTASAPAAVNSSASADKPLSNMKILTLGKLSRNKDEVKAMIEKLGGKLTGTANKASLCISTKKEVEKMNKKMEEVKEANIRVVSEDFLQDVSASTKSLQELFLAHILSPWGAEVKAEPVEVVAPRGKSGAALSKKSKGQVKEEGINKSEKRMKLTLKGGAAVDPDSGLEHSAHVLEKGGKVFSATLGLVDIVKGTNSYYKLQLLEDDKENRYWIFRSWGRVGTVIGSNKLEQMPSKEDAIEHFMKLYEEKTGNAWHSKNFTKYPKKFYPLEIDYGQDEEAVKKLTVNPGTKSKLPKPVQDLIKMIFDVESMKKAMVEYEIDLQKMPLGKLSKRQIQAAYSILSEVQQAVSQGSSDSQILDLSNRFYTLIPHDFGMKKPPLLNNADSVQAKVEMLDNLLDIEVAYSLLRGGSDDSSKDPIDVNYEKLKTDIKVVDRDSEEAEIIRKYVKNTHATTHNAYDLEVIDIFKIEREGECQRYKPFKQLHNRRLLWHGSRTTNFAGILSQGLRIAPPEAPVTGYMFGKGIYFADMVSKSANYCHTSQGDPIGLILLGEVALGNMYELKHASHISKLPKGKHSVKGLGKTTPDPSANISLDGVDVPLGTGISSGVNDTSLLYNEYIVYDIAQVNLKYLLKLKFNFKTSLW

SMILES	IC50 [1] [nM]	concentration at 0.5 h [2] [ng/g]	concentration at 2 h [3] [ng/g]	concentration at 2 h [4] [ng/mL]	concentration at 0.5 h [5] [ng/mL]	other results
Oc1nc(CCCN2CCC3=C(CCc4ccccc43)C2)nc2ccccc12	12					
COc1ccccc1C1=CCN(CCCc2nc(O)c3ccccc3n2)CC1	170					
O=c1[nH]c(CCCN2CC=C(c3ccccc3)CC2)nc2c(Cl)cc(Cl)cc12	39					
O=c1[nH]c(CCCC2CC=C(c3ccccc3)CC2)nc2ccccc12 (stereo not given)	> 1000					
O=c1[nH]c(CCCN2CC=C(c3ccccc3)CC2)nc2ccccc12	16	1900	370	150	680	
O=c1[nH]c(CCCN2CC=C(c3ccc(F)cc3)CC2)nc2ccccc12	8.9	3540	1160	3480	6830	
O=c1[nH]c(CCCN2CC=C(c3ccc(Cl)cc3)CC2)nc2ccccc12	23	23900	9410	2780	12100	
Oc1nc(CCCN2CCN(c3ccccc3)CC2)nc2ccccc12		2850	300	530	2270	
Oc1nc(CCCN2CC=C(c3ccccc3)CC2)nc2cc(Cl)ccc12	250	6120	2660	510	80	
N#Cc1ccc(C2=CCN(CCCc3nc(O)c4ccccc4n3)CC2)cc1	6	4500	540	5200	20000	
O=c1[nH]c(CCCN2CC=C(c3ccccc3)CC2)nc2cccc(Cl)c12	65	4600	2820	2170	4180	concentration at 0.5 h [6]: 1200 ng/mL; Kp [7]: 5.8; concentration at 0.5 h [8]: 7000 ng/g
Oc1nc(CCCN2CC=C(c3ccccc3)CC2)nc2ccc(Cl)cc12	27	18600	14200	15500	16200	
Oc1nc(CCCN2CC=C(c3ccccc3)CC2)nc2cccc(F)c12		1620	220	140	370	
Cc1ccc(C2=CCN(CCCc3nc(O)c4ccccc4n3)CC2)cc1	17	5310	2340	840	5400	
O=c1[nH]c(CCCN2CC=C(c3ccccc3)CC2)nc2c(Cl)cccc12	26	7990	8430	1200	1280	
COc1ccc(C2=CCN(CCCc3nc(O)c4ccccc4n3)CC2)cc1	8.3	5610	3750	1670	6050	
Oc1nc(CCCN2CC=C(c3ccc(-[n+]4ccccc4)cc3)CC2)nc2ccccc12	12	2760	300	620	14100	
Oc1nc(CCCN2CC=C(c3ccc(-c4ccccc4)cc3)CC2)nc2ccccc12	34					
Cc1cccc2c(=O)[nH]c(CCCN3CC=C(c4ccccc4)CC3)nc12	14	2540	730	400	940	
Cc1nc2cccc(Cl)c2c(=O)[nH]1						concentration at 0.5 h [6]: 6700 ng/mL; Kp [7]: 0.82; concentration at 0.5 h [8]: 5500 ng/g
O=c1[nH]c(CCCN2CC=C(c3cccc(F)c3)CC2)nc2ccccc12	23					
O=c1[nH]c(CCCN2CCC(c3ccccc3)CC2)nc2ccccc12	46	370	100		250	
O=c1[nH]c(CCCN2CC=C(c3ccc(F)cc3)CC2)nc2c(Cl)cccc12	13	5600	2100	500	1000	CLint scaled [9]: 141 mL/min/kg; Cmax [10]: 300 ng/mL; CLint scaled [11]: 156 mL/min/kg; Kp [7]: 5.6; Ratio ([7]; plasma): 4.2; bioavailability [12]: 70%; half-life [13]: 6 h; CLint scaled [14]: 1240 mL/min/kg; bioavailability [15]: 20%; half-life [16]: 1.4 h; CLint scaled [17]: 2250 mL/min/kg; AUC [18]: 2.52 µg/h/mL; Cmax [19]: 280 ng/mL; clearance [20]: 4.8 mL/min/kg; clearance [21]: 13.5 mL/min/kg; Cmax [22]: 1330 ng/mL; AUC [23]: 3.16 µg/h/mL
COc1cccc2c(=O)[nH]c(CCCN3CC=C(c4ccccc4)CC3)nc12	26	1150			240	
Oc1nc(CCCN2CCc3c([nH]c4ccccc34)C2)nc2ccccc12	74	580	150	9510	77200	
CCc1cccc2c(O)nc(CCCN3CC=C(c4ccccc4)CC3)nc12	66					
O=c1[nH]c(CCCN2CC=C(c3ccc(O)cc3)CC2)nc2ccccc12	12					
Oc1nc(CCCN2CC=C(c3ccccc3F)CC2)nc2ccccc12	37					
O=c1[nH]c(CCCN2CC=C(c3ccc(C(F)(F)F)cc3)CC2)nc2ccccc12	25	23400	19500	3270	6800	
O=c1[nH]c(=O)n(CCCCN2CC=C(c3ccccc3)CC2)c2cccc(F)c12						concentration at 0.5 h [6]: 700 ng/mL; Kp [7]: 0.86; concentration at 0.5 h [8]: 600 ng/g
